# Results: US20050170041A1, “Chewing gum compositions comprising monatin and methods for making same” (Cargill, Inc., priority 2003, published 2005)
# “Also recorded” adds a separate entry of the source.
# Tests used:
# [1] = Sensory evaluation of sweeteners in iced tea; assay type: in vivo; conditions: 200 ml serving, aspartame 450 ppm, monatin 40 ppm, panel n=6
# Experimental: Monatin formulations, including R,R monatin or R,R monatin/erythritol combinations, were assessed relative to other known sweeteners (aspartame and sucralose) in iced tea. The key sensory parameters assessed included sweetness quality, aftertaste, bitter taste and its aftertaste. Qualitative evaluation has been carried out.
# An ice tea formulation was developed to evaluate sweetener performance (Table 7).
# Sweeteners were added to tea at the following concentrations:
# The evaluation of ice tea drinks was carried out by a panel (n=6) of experienced sensory evaluators.
# [2] = Stability of monatin at pH 3 with increasing temperatures; assay type: physicochemical; conditions: synthetic monatin
# Experimental: A sample of synthetic monatin was subjected to pH 3 at temperatures of 25° C., 50° C. and 100° C. At room temperature and pH 3, a 14% loss in monatin was observed over a period of 48 hours. This loss was attributed to lactone formation. At 50° C. and pH 3, a 23% loss in monatin was observed over a period of 48 hours. This loss was attributed to lactone formation and the buildup of an unknown compound after about 15.5 minutes. […] The major detectable component was an unknown at 15.5 minutes.
# [3] = Sensory stability of monatin and aspartame at pH 2.5, 3.0, 4.0 at 40° C.; assay type: physicochemical; conditions: for Rate constant (k) of sweetness loss: 40° C., pseudo-first order assumed; for SEV Monatin / Retention of Monatin Sweetness: stored at 40° C., monatin ~55 ppm
# Experimental: The sensory stability of monatin solutions prepared at pH 2.5, 3.0 and 4.0 and stored at 40° C. was monitored for 100 days. Loss of sweetness from these solutions was compared with the losses of sweetness from aspartame solutions prepared and stored under identical conditions.
# The sensory stability of monatin (8% SEV, ˜55 ppm, synthetic blend containing approximately 96% of the 2R,4R/2S, 4S enantiometric pair and 4% of the 2R,4S/2S,4R enantiometric pair) in phosphate/citrate buffers having a pH of 2.5, 3.0, and 4.0 was examined after storage at 40° C. The stability of monatin was compared to that of aspartame (400 ppm) in the same buffers. Three sucrose reference solutions were prepared in the same phosphate/citrate buffers as the monatin and aspartame solutions. All prepared solutions were stored in the dark.
# The sweetness of each sweetener relative to sucrose was assessed in duplicate by a panel (n=8) of trained sensory evaluators experienced in the sweetness estimation procedure. All samples (in the same buffers) were served in duplicate at a temperature of 22° C.±1° C. Monatin (test) solutions, coded with 3 digit random number codes were presented individually to panelists, in random order. Sucrose reference standards, ranging from 4.0-10.0% (w/v) sucrose, increasing in steps of 0.5% (w/v) sucrose were also provided. Panelists were asked to estimate sweetness by comparing the sweetness of the test solution to the sucrose standards. This was carried out by taking 3 sips of the test solution, followed by a sip of water, followed by 3 sips of sucrose standard followed by a sip of water, etc. Panelists were encouraged to estimate the sweetness to one decimal place, e.g., 6.8, 8.5. A five minute rest period was imposed between evaluating the test solutions. Panelists were also asked to rinse well and eat a cracker to reduce any potential carry over effects.
# If a pseudo-first order breakdown reaction is assumed, a plot of logn percentage retention versus time (logn % RTN v. t) allows estimation of the half-life (t½) and rate constant (k) of sweetness loss under any given set of conditions. In so doing, the kinetics of monatin and aspartame sweetness loss may be summarized as follows in Table 14.
# [4] = Quantitative synergy of monatin in blends with other sweeteners; assay type: in vivo
compound,measurement,setting,value
"NC(CC(O)(Cc1c[nH]c2ccccc12)C(=O)O)C(=O)O (centres unmarked) [Monatin, 2-hydroxy-2-(indol-3-ylmethyl)-4-aminoglutaric acid]",Comments: flavor enhancement (lemon flavor notes),[1],enhanced the lemon flavor notes
same,loss in monatin,"[2]; 50° C., pH 3, 48 hours",23%
same,loss in monatin,"[2]; 100° C., pH 3, after 24 hours",nearly all monatin was lost
same,loss in monatin,"[2]; room temperature (25° C.), pH 3, 48 hours",14%
same,stability of sweetness compared with aspartame,[3]; acidic conditions and storage at 40° C.,more stable sweetness than does aspartame
same,percentage retention of sweetness compared with aspartame,"[3]; each pH (2.5, 3.0, 4.0), after 100 days storage at 40° C.",greater than that retained with aspartame; also recorded: greater than that retained from aspartame
same,Rate constant (k) of sweetness loss,[3]; pH 2.5,0.011 day⁻¹
same,Sweetness Retained,"[3]; pH 2.5, after 100 days storage at 40° C.",29%
same,SEV Monatin,"[3]; pH 2.5, day 0",7.35 % sucrose
same,Retention of Monatin Sweetness,"[3]; pH 2.5, day 1",93.3%
same,SEV Monatin,"[3]; pH 2.5, day 1",6.86 % sucrose
same,Retention of Monatin Sweetness,"[3]; pH 2.5, day 2",91.2%
same,SEV Monatin,"[3]; pH 2.5, day 2",6.70 % sucrose
same,Retention of Monatin Sweetness,"[3]; pH 2.5, day 3",88.4%
same,SEV Monatin,"[3]; pH 2.5, day 3",6.50 % sucrose
same,Retention of Monatin Sweetness,"[3]; pH 2.5, day 4",85.2%
same,SEV Monatin,"[3]; pH 2.5, day 4",6.26 % sucrose
same,Retention of Monatin Sweetness,"[3]; pH 2.5, day 7",82.7%
same,SEV Monatin,"[3]; pH 2.5, day 7",6.08 % sucrose
same,Retention of Monatin Sweetness,"[3]; pH 2.5, day 8",81.4%
same,SEV Monatin,"[3]; pH 2.5, day 8",5.98 % sucrose
same,Retention of Monatin Sweetness,"[3]; pH 2.5, day 9",80.1%
same,SEV Monatin,"[3]; pH 2.5, day 9",5.89 % sucrose
same,Retention of Monatin Sweetness,"[3]; pH 2.5, day 11",78.6%
same,SEV Monatin,"[3]; pH 2.5, day 11",5.78 % sucrose
same,Retention of Monatin Sweetness,"[3]; pH 2.5, day 50",62.7%
same,SEV Monatin,"[3]; pH 2.5, day 50",4.61 % sucrose
same,Retention of Monatin Sweetness,"[3]; pH 2.5, day 100",28.6%
same,SEV Monatin,"[3]; pH 2.5, day 100",2.10 % sucrose
same,Rate constant (k) of sweetness loss,[3]; pH 3.0,0.006 day⁻¹
same,Sweetness Retained,"[3]; pH 3.0, after 100 days storage at 40° C.",58%
same,SEV Monatin,"[3]; pH 3.0, day 0",7.08 % sucrose
same,Retention of Monatin Sweetness,"[3]; pH 3.0, day 1",99.6%
same,SEV Monatin,"[3]; pH 3.0, day 1",7.05 % sucrose
same,Retention of Monatin Sweetness,"[3]; pH 3.0, day 2",93.2%
same,SEV Monatin,"[3]; pH 3.0, day 2",6.60 % sucrose
same,Retention of Monatin Sweetness,"[3]; pH 3.0, day 3",91.4%
same,SEV Monatin,"[3]; pH 3.0, day 3",6.47 % sucrose
same,Retention of Monatin Sweetness,"[3]; pH 3.0, day 4",91.6%
same,SEV Monatin,"[3]; pH 3.0, day 4",6.49 % sucrose
same,Retention of Monatin Sweetness,"[3]; pH 3.0, day 7",85.3%
same,SEV Monatin,"[3]; pH 3.0, day 7",6.04 % sucrose
same,Retention of Monatin Sweetness,"[3]; pH 3.0, day 8",83.8%
same,SEV Monatin,"[3]; pH 3.0, day 8",5.93 % sucrose
same,Retention of Monatin Sweetness,"[3]; pH 3.0, day 9",83.1%
same,SEV Monatin,"[3]; pH 3.0, day 9",5.88 % sucrose
same,Retention of Monatin Sweetness,"[3]; pH 3.0, day 11",83.1%
same,SEV Monatin,"[3]; pH 3.0, day 11",5.88 % sucrose
same,Retention of Monatin Sweetness,"[3]; pH 3.0, day 50",72.3%
same,SEV Monatin,"[3]; pH 3.0, day 50",5.12 % sucrose
same,Retention of Monatin Sweetness,"[3]; pH 3.0, day 100",57.9%
same,SEV Monatin,"[3]; pH 3.0, day 100",4.10 % sucrose
same,Rate constant (k) of sweetness loss,[3]; pH 4.0,0.003 day⁻¹
same,Sweetness Retained,"[3]; pH 4.0, after 100 days storage at 40° C.",78%
same,SEV Monatin,"[3]; pH 4.0, day 0",7.40 % sucrose
same,Retention of Monatin Sweetness,"[3]; pH 4.0, day 3",95.7%
same,SEV Monatin,"[3]; pH 4.0, day 3",7.08 % sucrose
same,Retention of Monatin Sweetness,"[3]; pH 4.0, day 8",86.8%
same,SEV Monatin,"[3]; pH 4.0, day 8",6.42 % sucrose
same,Retention of Monatin Sweetness,"[3]; pH 4.0, day 11",85.9%
same,SEV Monatin,"[3]; pH 4.0, day 11",6.36 % sucrose
same,Retention of Monatin Sweetness,"[3]; pH 4.0, day 17",82.4%
same,SEV Monatin,"[3]; pH 4.0, day 17",6.10 % sucrose
same,Retention of Monatin Sweetness,"[3]; pH 4.0, day 24",84.5%
same,SEV Monatin,"[3]; pH 4.0, day 24",6.25 % sucrose
same,Retention of Monatin Sweetness,"[3]; pH 4.0, day 50",82.9%
same,SEV Monatin,"[3]; pH 4.0, day 50",6.14 % sucrose
same,Retention of Monatin Sweetness,"[3]; pH 4.0, day 100",78.4%
same,SEV Monatin,"[3]; pH 4.0, day 100",5.80 % sucrose
same,quantitative synergy with cyclamates,[4]; blend with cyclamates,quantitatively synergistic
same,quantitative synergy with other sweeteners,"[4]; with aspartame, saccharin, acesulfame-K, sucralose, or carbohydrate sweeteners",no significant quantitative synergy
